Measured values reported in patent US20110046018A1, “SERS-BASED, SINGLE STEP, REAL-TIME DETECTION OF PROTEIN KINASE AND/OR PHOSPHATASE ACTIVITY” (priority 2007, published 2011).
“Also recorded” adds a separate entry of the source.

Experiments:
Src kinase = Src kinase (Homo sapiens, UniProt P12931); assay: SERS peptide-conjugated nanoprobe assay of Src kinase inhibition; assay type: biochemical; conditions: with increasing concentration of inhibitor
Procedure: Src kinase SERS probes were tested and calibrated using purified p60 cellular Src kinase first. The real time peptide SERS spectra were recorded in the reaction with 10 nM Src kinase at 37° C. […] The phosphorylation level was defined as the normalized ratio of peak intensities between 1004 cm^−1 and 1260 cm^−1. […] The real time phosphorylation level in the reactions was characterized with various concentrations of Src kinase. […] The reaction constants of the Src kinase at different concentration can be calculated using the Michaelis-Maten model.
Different Src kinase inhibitors were tested using the peptide-conjugated nanoprobe assay. The phosphorylation level of the Src kinase with the addition of the inhibitors PP2, PP3 and SU5656 was tested. […] The IC50 concentrations for the three inhibitors were characterized respectively.
A microscopy system with Raman spectrometer was used to acquire Raman scattering spectra from single nanocrescents. […] A 785 nm semiconductor laser was used in our experiments as the excitation source of Raman scattering, and the laser beam was focused by a 40× objective lens on the nanocrescent. The excitation power was measured by a photometer (Newport, Calif.) to be ˜0.8 mW. The Raman scattering light was then collected through the same optical pathway through a long-pass filter and analyzed by the spectrometer.

[1] = test system: substrate peptide for Src kinase (SEQ ID NO:1)
[2] = molecular target: substrate peptide for Src kinase (SEQ ID NO:1); assay: cell-based or functional assay

Src kinase, sequence (P12931 whole entry): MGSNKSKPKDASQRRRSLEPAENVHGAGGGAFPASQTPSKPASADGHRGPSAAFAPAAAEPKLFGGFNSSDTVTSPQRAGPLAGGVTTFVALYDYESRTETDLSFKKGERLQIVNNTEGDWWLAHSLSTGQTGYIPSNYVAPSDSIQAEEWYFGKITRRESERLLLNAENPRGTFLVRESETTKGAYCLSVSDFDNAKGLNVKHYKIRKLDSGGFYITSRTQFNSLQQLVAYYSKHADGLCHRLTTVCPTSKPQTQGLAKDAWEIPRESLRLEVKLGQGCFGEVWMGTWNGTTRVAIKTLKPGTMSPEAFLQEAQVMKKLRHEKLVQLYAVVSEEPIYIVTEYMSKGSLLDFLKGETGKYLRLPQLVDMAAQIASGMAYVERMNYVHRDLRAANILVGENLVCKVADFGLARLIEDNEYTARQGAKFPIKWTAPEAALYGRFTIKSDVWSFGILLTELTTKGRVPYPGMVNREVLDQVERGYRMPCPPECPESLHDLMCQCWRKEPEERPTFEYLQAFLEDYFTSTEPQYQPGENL

Compound	phosphorylation level of the Src kinase with the addition of the inhibitors (Src kinase)	also measured
CC(C)(C)n1nc(-c2ccc(Cl)cc2)c2c(N)ncnc21 [PP2]	decreases significantly	–
Nc1ncnc2c1cnn2-c1ccccc1 [PP3]	decreases significantly	–
CN(C)S(=O)(=O)c1ccc2c(c1)/C(=C/c1cc3c([nH]1)CCCC3)C(=O)N2 [SU5656]	decreases significantly	–
purified p60 cellular Src kinase	–	minimal detectable concentration of Src kinase (SERS phosphorylation assay) [1]: the minimal detectable concentration is above 10 pM; phosphorylation level (normalized ratio of peak intensities between 1004 cm^-1 and 1260 cm^-1, SERS) [1]: increased more than 6-fold after the reactions with 10 nM Src kinase; also recorded: The phosphorylation level saturated at around 7 for high concentration of Src kinase
virus Src protein (in crude lysate of transfected 3T9 mouse fibroblast cells) (enzyme)	–	phosphorylation level (SERS, crude cell lysate) [2]: 3 times
